One data set has as its target PARP1 (Homo sapiens, UniProt P09874). Details: method as in PMID 18579376, PMID 18800822, PMID 24388690, PMID 28340412, PMID 36183505. As to conditions: in figure; cited from earlier work.
For data set [1], the system named is MDA-MB-468 cells. The data set is described as follows: Western blot of γ-H2AX. In kind it is cell-based. As to conditions: 24 h, 1 μM. As to the method: (§1) Cells were then lysed using RIPA buffer supplemented with protease and phosphatase inhibitors. Protein concentrations were determined using the BCA Protein Assay Kit (Thermo Fisher Scientific^TM, Waltham, MA, USA). Equal amounts of protein (20–30 µg) were separated by SDS-polyacrylamide gel electrophoresis and transferred to a polyvinylidene fluoride (PVDF) membrane. The membrane was blocked with 5% milk in PBS before incubation with primary antibodies. Primary antibodies against γ-H2AX (Cell Signaling Technology™, Danvers, MA, USA), BCL2 (Abcam™, Cambridge, UK), and β-actin (Proteintech™, Rosemont, IL, USA) were used. After overnight incubation at 4 °C, membranes were washed and incubated with HRP-conjugated secondary antibodies for 1 h. Protein bands were visualized using ECL reagents (Labgic Technology^TM, Beijing, China).

The subject of data set [2] is MDA-MB-468 cells. The data set is described as follows: NMN rescue of cytotoxicity. The class given is cell-based. As to conditions: 200 μM NMN. From the text: NMN is the direct product of the NAMPT-catalyzed reaction. Excessive NMN can counteract the inhibitory effect of NAMPT inhibition. […] The reversal of DDY02’s efficacy by NMN underscores the compound’s mechanism of action and confirms the critical role of NAMPT inhibition in mediating its therapeutic effects. This observation also emphasizes the potential of NMN as a modulator in therapeutic scenarios involving NAMPT-targeted treatments.

The test system of data set [3] is MDA-MB-468 cells. The data set is described as follows: Western blot of BCL2. As to conditions: 24 h, 1 μM. In kind it is cell-based. As to the method:
as §1
Background: In western blotting, separated proteins are transferred to a membrane and probed.

A further data set deals with MDA-MB-468. Put plainly: MTT cell viability assay, MDA-MB-468. The class given is cell-based. As to conditions: Homo sapiens, 72 h, mean ± SEM, read-out: Cytotoxicity IC50 MDA-MB-468. As to the method:
(§2) MDA-MB-468, MDA-MB-231, MCF-7, and MCF-10A cell lines were obtained from the National Collection of Authenticated Cell Culture, China. The cells were cultured in DMEM medium supplemented with 10% FBS and 1% penicillin/streptomycin, and maintained at 37 °C in a humidified atmosphere with 5% CO2.
(§3) Cell viability was assessed using the MTT assay. Cells were seeded at a density of 3 × 10^3 cells per well in a 96-well plate and treated with various concentrations (0.05, 0.2, 0.8, 3.2, 6.4, 12.8 µM) of the compounds for 72 h. After incubation, 100 µL of MTT solution (0.5 mg/mL) was added to each well and further incubated for 4 h. The resulting formazan crystals were dissolved in 150 µL of DMSO, and the absorbance was measured at 570 nm using a microplate reader.

The next data set relates to MCF-7. Put plainly: MTT cell viability assay, MCF-7. In kind it is cell-based. The following applies: Homo sapiens, MCF7, 72 h, mean ± SEM, read-out: Cytotoxicity IC50 MCF-7. As to the method:
as §2, §3
A general note: Formazan colour is commonly taken as a measure of viable cells.

A further data set has as its system MDA-MB-231. The data set is described as follows: MTT cell viability assay, MDA-MB-231. In kind it is cell-based. As to conditions: Homo sapiens, 72 h, mean ± SEM, read-out: Cytotoxicity IC50 MDA-MB-231. As for the experimental part: as §2, §3
For data set [4], the system named is MDA-MB-468 cells. The data set is described as follows: Wound scratch cell migration assay. The class given is cell-based. As to conditions: 1 μM, up to 48 h. As to the method: MDA-MB-468 cells were plated in 6-well plates at a density of 5 × 10^5 cells/well and allowed to incubate overnight. A scratch was carefully generated in the cell monolayer using a 10 µL pipette tip. […] Images were acquired at 0, 12, 24, and 48 h time points to monitor and analyze the migration of cells over the specified intervals.

The next data set deals with MCF-10A. The data set is described as follows: MTT cell viability assay, MCF-10A normal breast epithelial cells. The class given is cell-based, human. As to conditions: Homo sapiens, 72 h; 3.0 μM; MCF-10A; mean ± SEM; read-out: Cell Survival Rate. As for the experimental part:
as §2, §3

Assay in data set [5]: as above
In kind it is cell-based, human. As to conditions: human, MCF-10A normal breast epithelial cells; MCF-10A; mean ± SEM; read-out: Cytotoxicity IC50. As for the experimental part: as §2, §3

These results are taken from PMC11206297, “Targeting NAD Metabolism: Rational Design, Synthesis and In Vitro Evaluation of NAMPT/PARP1 Dual-Target Inhibitors as Anti-Breast Cancer Agents” (Molecules, 2024).

Usually IC50 stands for the concentration at which inhibition is half-maximal.

Structures are written as SMILES.

Sequence of PARP1 (P09874 whole entry): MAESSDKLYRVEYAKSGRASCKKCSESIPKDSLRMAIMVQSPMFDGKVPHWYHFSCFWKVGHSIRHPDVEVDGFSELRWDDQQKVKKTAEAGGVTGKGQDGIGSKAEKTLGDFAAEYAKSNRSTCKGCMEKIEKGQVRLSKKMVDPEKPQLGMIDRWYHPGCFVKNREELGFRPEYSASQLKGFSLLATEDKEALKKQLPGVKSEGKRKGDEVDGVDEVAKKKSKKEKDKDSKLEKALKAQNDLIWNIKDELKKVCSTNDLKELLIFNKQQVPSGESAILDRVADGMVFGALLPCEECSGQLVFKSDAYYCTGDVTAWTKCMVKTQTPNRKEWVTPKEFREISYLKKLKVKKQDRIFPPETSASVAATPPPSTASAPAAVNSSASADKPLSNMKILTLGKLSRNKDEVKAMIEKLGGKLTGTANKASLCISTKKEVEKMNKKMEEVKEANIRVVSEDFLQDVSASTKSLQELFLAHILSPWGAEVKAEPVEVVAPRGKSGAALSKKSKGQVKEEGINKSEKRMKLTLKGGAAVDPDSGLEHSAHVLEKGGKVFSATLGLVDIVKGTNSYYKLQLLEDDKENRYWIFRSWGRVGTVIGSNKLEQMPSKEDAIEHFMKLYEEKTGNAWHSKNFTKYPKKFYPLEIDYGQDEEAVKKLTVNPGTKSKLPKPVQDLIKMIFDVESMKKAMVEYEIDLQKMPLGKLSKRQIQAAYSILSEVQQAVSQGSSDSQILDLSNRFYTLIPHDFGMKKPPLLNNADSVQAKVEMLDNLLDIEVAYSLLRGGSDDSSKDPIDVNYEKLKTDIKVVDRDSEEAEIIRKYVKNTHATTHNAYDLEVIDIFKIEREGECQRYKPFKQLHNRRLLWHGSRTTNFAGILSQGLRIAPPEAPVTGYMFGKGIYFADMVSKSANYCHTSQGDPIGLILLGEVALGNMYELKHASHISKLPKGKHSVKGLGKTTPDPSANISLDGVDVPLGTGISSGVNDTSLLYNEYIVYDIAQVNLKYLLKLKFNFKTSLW

Consider `NC(=O)c1ccccc1OCc1ccc(F)c(C(=O)N2CCN(C(=O)C3CCCC3)CC2)c1` [Compound 16], for which the IC50 at PARP1 was 0.061 µM.
With `O=C(/C=C/c1cccnc1)NCCCCC1CCN(C(=O)c2ccccc2)CC1` [FK866, reference compound], the “accumulation of γ-H2AX” value with MDA-MB-468 cells [1] is on record as “promoted the accumulation of γ-H2AX”. In addition, in the data set with MDA-MB-468 cells [2], the “cytotoxic effects after preincubation with NMN” value is recorded as “reversed the cytotoxic effects”. Also, the BCL2 expression result in the data set on MDA-MB-468 cells [3] is given as “no effect on the expression of BCL2”. Further, the IC50 with MDA-MB-468 came to 4.01 ± 0.21 µM; with MCF-7 it was 5.8 ± 0.86 µM; with MDA-MB-231 it was 3.83 ± 0.12 µM. In addition, the “inhibitory effect on cell migration” value in the data set on MDA-MB-468 cells [4] is recorded as “weakest inhibitory activity”. Besides, the viability at 3 µM in the data set on MCF-10A turned out to be 65.49 ± 0.41%. Also, in data set [5], the IC50 at 72 h came to 4.41 ± 0.22 µM.
